From patent publication US20070010466A1 (priority 2005, published 2007)
Entries after “also recorded” stand apart in the source; their conditions may differ.

Columns and labels:
[1] = clinical trials; cited from earlier work
[2] = preclinical models, several oncolytics; cited from earlier work
[3] = molecular target: T1, P-gp function on circulating natural killer (NK) cells and leukemic blasts (Homo sapiens, UniProt P08183); experiment: cellular P-gp function, DiOC2 accumulation assay with flow cytometry, in AML patients; assay type: in vivo
T1 construct: Pharmacodynamic assessments of cellular P-gp function were conducted using an accumulation assay with DiOC2 and flow cytometry; endogenous in cells; host or cells: circulating NK cells and leukemic blasts from AML patients
Experimental: Cytarabine was also administered (100 mg/m^2/day) starting after the first dose of daunorubicin as a continuous intravenous infusion on days 1-7. Blood samples were taken at intervals for pharmacokinetic and pharmacodynamic studies. Pharmacokinetic drug determinations were conducted by HPLC. Pharmacodynamic assessments of cellular P-gp function were conducted using an accumulation assay with DiOC2 and flow cytometry. P-gp function was assessed on circulating natural killer (NK) cells and leukemic blasts. […] Means of 3 patients for each time point are shown.

T1 sequence (P08183 whole entry): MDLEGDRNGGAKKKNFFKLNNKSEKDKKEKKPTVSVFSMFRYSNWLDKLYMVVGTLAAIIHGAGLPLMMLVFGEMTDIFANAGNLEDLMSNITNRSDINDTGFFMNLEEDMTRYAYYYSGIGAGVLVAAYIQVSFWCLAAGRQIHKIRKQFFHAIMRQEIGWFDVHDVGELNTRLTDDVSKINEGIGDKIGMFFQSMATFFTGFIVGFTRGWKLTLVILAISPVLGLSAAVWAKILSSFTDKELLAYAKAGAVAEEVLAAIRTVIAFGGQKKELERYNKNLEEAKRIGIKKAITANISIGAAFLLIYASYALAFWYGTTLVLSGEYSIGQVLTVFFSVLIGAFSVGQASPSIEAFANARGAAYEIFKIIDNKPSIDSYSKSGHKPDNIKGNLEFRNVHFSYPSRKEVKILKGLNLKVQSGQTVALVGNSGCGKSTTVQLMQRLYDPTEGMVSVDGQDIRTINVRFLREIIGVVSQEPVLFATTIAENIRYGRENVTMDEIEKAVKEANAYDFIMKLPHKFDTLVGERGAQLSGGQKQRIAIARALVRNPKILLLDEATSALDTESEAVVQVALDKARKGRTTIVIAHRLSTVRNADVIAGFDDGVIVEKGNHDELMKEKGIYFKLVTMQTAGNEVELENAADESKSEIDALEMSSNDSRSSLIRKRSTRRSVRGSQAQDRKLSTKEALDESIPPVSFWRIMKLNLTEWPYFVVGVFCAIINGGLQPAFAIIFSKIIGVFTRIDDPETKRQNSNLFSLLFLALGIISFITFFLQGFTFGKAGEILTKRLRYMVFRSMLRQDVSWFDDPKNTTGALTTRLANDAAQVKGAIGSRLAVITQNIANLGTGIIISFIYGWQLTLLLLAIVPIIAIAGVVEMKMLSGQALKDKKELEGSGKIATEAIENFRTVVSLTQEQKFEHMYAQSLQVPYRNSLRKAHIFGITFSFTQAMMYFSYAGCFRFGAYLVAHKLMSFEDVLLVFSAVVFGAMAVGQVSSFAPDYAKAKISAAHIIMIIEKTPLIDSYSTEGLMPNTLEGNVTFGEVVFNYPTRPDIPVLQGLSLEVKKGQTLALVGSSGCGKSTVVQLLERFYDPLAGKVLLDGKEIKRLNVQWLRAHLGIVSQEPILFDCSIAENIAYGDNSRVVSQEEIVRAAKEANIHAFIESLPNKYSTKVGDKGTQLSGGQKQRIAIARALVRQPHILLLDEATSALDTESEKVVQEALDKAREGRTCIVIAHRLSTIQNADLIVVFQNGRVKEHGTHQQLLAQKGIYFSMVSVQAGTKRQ

Compound | pharmacokinetic interaction with coadministered cytotoxic agents [1] | pharmacokinetic interaction with co-administered chemotherapy [2] | continued inhibition of P-gp functional activity after infusion was halted ([3]; after 72 hour infusion) | time to potent inhibition of P-gp function after start of infusion ([3]; both NK cells and leukemic blasts, 700 mg/day continuous iv infusion) [h]
C/C=C/C[C@@H](C)C(=O)[C@H]1C(=O)N[C@@H](C(C)C)C(=O)N(C)CC(=O)N(C)[C@@H](CC(C)C)C(=O)N[C@@H](C(C)C)C(=O)N(C)[C@@H](CC(C)C)C(=O)N[C@@H](C)C(=O)N[C@H](C)C(=O)N(C)[C@@H](CC(C)C)C(=O)N(C)[C@@H](CC(C)C)C(=O)N(C)[C@@H](C(C)C)C(=O)N1C [valspodar] | significant pharmacokinetic interactions |  |  | 
O[C@@H](COc1cccc2ncccc12)CN1CCN([C@@H]2c3ccccc3[C@@H]3[C@H](c4ccccc42)C3(F)F)CC1 [zosuquidar] |  | no pharmacokinetic interaction; also recorded: minimal pharmacokinetic (PK) interactions | at least 12 hours | ≤ 2
